{"source": "patent US11865126B2", "about": "“Method for treating anxiety disorders, headache disorders, and eating disorders with psilocybin” (priority 2019, dated 2024)", "system": "healthy subjects", "assay": "Symptom Checklist-90 item (SCL-90)", "assay_type": "in vivo, human", "text": "In some embodiments, the Symptom Checklist-90 item (SCL-90) questionnaire is used to evaluate the safety and/or efficacy of psilocybin. The SCL-90 is a relatively brief self-report psychometric instrument designed to evaluate a broad range of psychological problems and symptoms of psychopathology. In some embodiments, the SCL-90 is used to assess somatization, obsessive-compulsive behaviors, interpersonal sensitivity, depression, anxiety, hostility, phobic anxiety, paranoid ideation, and psychoticism of a subject treated according to the methods of the disclosure. The 90 items in the questionnaire are scored on a 5-point Likert scale, indicating the rate of occurrence of the symptom during the time reference. In some embodiments, after treating according to the methods of the disclosure, a subject's SCL-90 score decreases by about 5% to about 100%, for example, by about 5%, about 10%, about 15%, about 20%, about 25%, about 30%, about 35%, about 40%, about 45%, about 50%, about 55%, about 60%, about 65%, about 70%, about 75%, about 80%, about 85%, about 90%, about 95%, or about 100%.\nThe Neuroticism Extraversion Openness-Five Factor Inventory (NEO-FFI) and Symptom Checklist-90 Item (SCL-90) were administered. Details of the MMRM applied to the change from baseline scores for the NEO-FFI and SCL-90 are provided below in Table 28.", "data": [{"compound": "CN(C)CCc1c[nH]c2cccc(OP(=O)(O)O)c12", "note": "[psilocybin]", "values": [{"measurement": "SCL-90 - somatisation change from baseline, difference Psilocybin 10 mg - Placebo", "setting": "Day 7", "value": 0.1}, {"measurement": "SCL-90 - somatisation change from baseline, difference Psilocybin 25 mg - Placebo", "setting": "Day 7", "value": 0.1}, {"measurement": "SCL-90 - somatisation change from baseline, difference Psilocybin (25 mg-10 mg)", "setting": "Day 7", "value": "−0.0"}, {"measurement": "SCL-90 anger hostility change from baseline, difference Psilocybin 10 mg - Placebo", "setting": "Day 7", "value": "−0.0"}, {"measurement": "SCL-90 anger hostility change from baseline, difference Psilocybin 25 mg - Placebo", "setting": "Day 7", "value": "−0.0"}, {"measurement": "SCL-90 anger hostility change from baseline, difference Psilocybin (25 mg-10 mg)", "setting": "Day 7", "value": 0.0}, {"measurement": "SCL-90 anxiety change from baseline, difference Psilocybin 10 mg - Placebo", "setting": "Day 7", "value": "−0.0"}, {"measurement": "SCL-90 anxiety change from baseline, difference Psilocybin 25 mg - Placebo", "setting": "Day 7", "value": 0.0}, {"measurement": "SCL-90 anxiety change from baseline, difference Psilocybin (25 mg-10 mg)", "setting": "Day 7", "value": 0.0}, {"measurement": "SCL-90 depression change from baseline, difference Psilocybin 10 mg - Placebo", "setting": "Day 7", "value": 0.0}, {"measurement": "SCL-90 depression change from baseline, difference Psilocybin 25 mg - Placebo", "setting": "Day 7", "value": 0.0}, {"measurement": "SCL-90 depression change from baseline, difference Psilocybin (25 mg-10 mg)", "setting": "Day 7", "value": "−0.0"}, {"measurement": "SCL-90 interpersonal sensitivity change from baseline, difference Psilocybin 10 mg - Placebo", "setting": "Day 7", "value": "−0.0"}, {"measurement": "SCL-90 interpersonal sensitivity change from baseline, difference Psilocybin 25 mg - Placebo", "setting": "Day 7", "value": 0.0}, {"measurement": "SCL-90 interpersonal sensitivity change from baseline, difference Psilocybin (25 mg-10 mg)", "setting": "Day 7", "value": 0.1}, {"measurement": "SCL-90 obsessive compulsive change from baseline, difference Psilocybin 10 mg - Placebo", "setting": "Day 7", "value": 0.1}, {"measurement": "SCL-90 obsessive compulsive change from baseline, difference Psilocybin 25 mg - Placebo", "setting": "Day 7", "value": 0.1}, {"measurement": "SCL-90 obsessive compulsive change from baseline, difference Psilocybin (25 mg-10 mg)", "setting": "Day 7", "value": "−0.0"}, {"measurement": "SCL-90 paranoid ideation change from baseline, difference Psilocybin 10 mg - Placebo", "setting": "Day 7", "value": 0.0}, {"measurement": "SCL-90 paranoid ideation change from baseline, difference Psilocybin 25 mg - Placebo", "setting": "Day 7", "value": 0.1}, {"measurement": "SCL-90 paranoid ideation change from baseline, difference Psilocybin (25 mg-10 mg)", "setting": "Day 7", "value": 0.1}, {"measurement": "SCL-90 phobic anxiety change from baseline, difference Psilocybin 10 mg - Placebo", "setting": "Day 7", "value": "−0.0"}, {"measurement": "SCL-90 phobic anxiety change from baseline, difference Psilocybin 25 mg - Placebo", "setting": "Day 7", "value": 0.0}, {"measurement": "SCL-90 phobic anxiety change from baseline, difference Psilocybin (25 mg-10 mg)", "setting": "Day 7", "value": 0.0}, {"measurement": "SCL-90 psychoticism change from baseline, difference Psilocybin 10 mg - Placebo", "setting": "Day 7", "value": 0.0}, {"measurement": "SCL-90 psychoticism change from baseline, difference Psilocybin 25 mg - Placebo", "setting": "Day 7", "value": 0.0}, {"measurement": "SCL-90 psychoticism change from baseline, difference Psilocybin (25 mg-10 mg)", "setting": "Day 7", "value": 0.0}, {"measurement": "SCL-90 - somatisation change from baseline, difference Psilocybin 10 mg - Placebo", "setting": "Day 84", "value": 0.0}, {"measurement": "SCL-90 - somatisation change from baseline, difference Psilocybin 25 mg - Placebo", "setting": "Day 84", "value": 0.0}, {"measurement": "SCL-90 - somatisation change from baseline, difference Psilocybin (25 mg-10 mg)", "setting": "Day 84", "value": 0.0}, {"measurement": "SCL-90 anger hostility change from baseline, difference Psilocybin 10 mg - Placebo", "setting": "Day 84", "value": "−0.0"}, {"measurement": "SCL-90 anger hostility change from baseline, difference Psilocybin 25 mg - Placebo", "setting": "Day 84", "value": "−0.0"}, {"measurement": "SCL-90 anger hostility change from baseline, difference Psilocybin (25 mg-10 mg)", "setting": "Day 84", "value": "−0.0"}, {"measurement": "SCL-90 anxiety change from baseline, difference Psilocybin 10 mg - Placebo", "setting": "Day 84", "value": "−0.1"}, {"measurement": "SCL-90 anxiety change from baseline, difference Psilocybin 25 mg - Placebo", "setting": "Day 84", "value": "−0.0"}, {"measurement": "SCL-90 anxiety change from baseline, difference Psilocybin (25 mg-10 mg)", "setting": "Day 84", "value": 0.0}, {"measurement": "SCL-90 depression change from baseline, difference Psilocybin 10 mg - Placebo", "setting": "Day 84", "value": 0.0}, {"measurement": "SCL-90 depression change from baseline, difference Psilocybin 25 mg - Placebo", "setting": "Day 84", "value": 0.0}, {"measurement": "SCL-90 depression change from baseline, difference Psilocybin (25 mg-10 mg)", "setting": "Day 84", "value": 0.0}, {"measurement": "SCL-90 interpersonal sensitivity change from baseline, difference Psilocybin 10 mg - Placebo", "setting": "Day 84", "value": "−0.1"}, {"measurement": "SCL-90 interpersonal sensitivity change from baseline, difference Psilocybin 25 mg - Placebo", "setting": "Day 84", "value": "−0.0"}, {"measurement": "SCL-90 interpersonal sensitivity change from baseline, difference Psilocybin (25 mg-10 mg)", "setting": "Day 84", "value": 0.0}, {"measurement": "SCL-90 obsessive compulsive change from baseline, difference Psilocybin 10 mg - Placebo", "setting": "Day 84", "value": 0.1}, {"measurement": "SCL-90 obsessive compulsive change from baseline, difference Psilocybin 25 mg - Placebo", "setting": "Day 84", "value": 0.0}, {"measurement": "SCL-90 obsessive compulsive change from baseline, difference Psilocybin (25 mg-10 mg)", "setting": "Day 84", "value": "−0.1"}, {"measurement": "SCL-90 paranoid ideation change from baseline, difference Psilocybin 10 mg - Placebo", "setting": "Day 84", "value": 0.1}, {"measurement": "SCL-90 paranoid ideation change from baseline, difference Psilocybin 25 mg - Placebo", "setting": "Day 84", "value": 0.1}, {"measurement": "SCL-90 paranoid ideation change from baseline, difference Psilocybin (25 mg-10 mg)", "setting": "Day 84", "value": 0.0}, {"measurement": "SCL-90 phobic anxiety change from baseline, difference Psilocybin 10 mg - Placebo", "setting": "Day 84", "value": "−0.0"}, {"measurement": "SCL-90 phobic anxiety change from baseline, difference Psilocybin 25 mg - Placebo", "setting": "Day 84", "value": 0.0}, {"measurement": "SCL-90 phobic anxiety change from baseline, difference Psilocybin (25 mg-10 mg)", "setting": "Day 84", "value": 0.0}, {"measurement": "SCL-90 psychoticism change from baseline, difference Psilocybin 10 mg - Placebo", "setting": "Day 84", "value": "−0.0"}, {"measurement": "SCL-90 psychoticism change from baseline, difference Psilocybin 25 mg - Placebo", "setting": "Day 84", "value": "−0.0"}, {"measurement": "SCL-90 psychoticism change from baseline, difference Psilocybin (25 mg-10 mg)", "setting": "Day 84", "value": 0.0}]}]}
